Earlier results, collected in US20080233128A1, “Treatment of Viral Infections” (priority 2006, published 2008).

System: circulating T-cells

Substance: alemtuzumab
- time to full recovery of T-cells (after a single dose, FIG. 1): ≥ 3 months
- T-cell depletion (killing of circulating T-cells) (single dose, FIG. 1, mean ALC as a function of time): kill all circulating T-cells
